From ChEMBL document CHEMBL1201862, “PubChem BioAssay data set” (2004)
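Method: 48-hour compound exposure of cells in 96-well plates, five concentrations, linear interpolation of endpoints. GI50 marks 50% less growth.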 Activity calls are given as the source filed them. Cut-off read from the data, not from the text of the source: active = GI50 up to about 1.1 µM and inactive = higher.

Key:
Experiment in all cases: DTP human tumour cell line panel, 48 h
786-0 = test system: 786-0
A549 = test system: A549
ACHN = test system: ACHN
CCRF-CEM = test system: CCRF-CEM
HCC 2998 = test system: HCC 2998
M14 = test system: M14
NCI-H23 = test system: NCI-H23
NCI-H460 = test system: NCI-H460
OVCAR-3 = test system: OVCAR-3
OVCAR-4 = test system: OVCAR-4
SK-MEL-28 = test system: SK-MEL-28
SN12C = test system: SN12C
SW-620 = test system: SW-620
UACC-62 = test system: UACC-62
HOP-62 = test system: HOP-62
NCI-H522 = test system: NCI-H522
RPMI-8226 = test system: RPMI-8226
NCI/ADR-RES = test system: NCI/ADR-RES

Measured: GI50

CC/C(CC(=O)CCC(=O)Nc1c(C)cccc1C)=N\NC(=O)NN
inactive: 786-0 > 100 µM | A549 > 100 µM | ACHN > 100 µM | CCRF-CEM > 100 µM | HCC 2998 > 100 µM | M14 > 100 µM | NCI-H23 > 100 µM | NCI-H460 > 100 µM | OVCAR-3 > 100 µM | OVCAR-4 > 100 µM | SK-MEL-28 > 10 µM | SN12C > 100 µM | SW-620 > 100 µM | UACC-62 > 100 µM

CN(C)C(=O)Nc1c([N+](=O)[O-])cc(C(F)(F)F)cc1[N+](=O)[O-]
inactive: 786-0 > 100 µM | A549 45 µM | ACHN 83.4 µM | CCRF-CEM 79.1 µM | HOP-62 > 100 µM | M14 44.6 µM | NCI-H23 27.7 µM | NCI-H460 42.9 µM | NCI-H522 29.9 µM | OVCAR-3 19.5 µM | OVCAR-4 27.7 µM | RPMI-8226 41.1 µM | SK-MEL-28 > 100 µM | SN12C 45.7 µM | SW-620 32.7 µM | UACC-62 46.9 µM

COC(=O)CCC1CCc2c(OC)ccc(O)c2C1=O (stereo not drawn)
inactive: 786-0 > 100 µM | A549 > 100 µM | ACHN > 100 µM | CCRF-CEM > 100 µM | HCC 2998 > 100 µM | HOP-62 > 100 µM | M14 > 100 µM | NCI-H23 > 100 µM | NCI-H460 > 100 µM | NCI-H522 > 100 µM | OVCAR-3 > 100 µM | OVCAR-4 > 100 µM | RPMI-8226 > 100 µM | SK-MEL-28 > 100 µM | SN12C > 100 µM | SW-620 > 100 µM | UACC-62 > 100 µM

CSC1=N/C(=C\c2cccs2)C(=O)N1CN1CCCCC1
inactive: 786-0 65.6 µM | A549 > 100 µM | ACHN 28 µM | CCRF-CEM 18.7 µM | HOP-62 > 100 µM | M14 > 100 µM | NCI-H23 > 100 µM | NCI/ADR-RES 50.9 µM | OVCAR-3 > 100 µM | RPMI-8226 22.1 µM | SK-MEL-28 > 100 µM | SN12C > 100 µM | SW-620 36.9 µM | UACC-62 93.3 µM

COc1ccc(-c2cc3ccccc3[nH]c2=O)cc1OC
inactive: 786-0 > 100 µM | A549 > 100 µM | ACHN > 100 µM | CCRF-CEM > 100 µM | HCC 2998 > 100 µM | HOP-62 > 100 µM | M14 > 100 µM | NCI-H23 > 100 µM | NCI-H460 > 100 µM | NCI-H522 > 100 µM | OVCAR-4 > 100 µM | RPMI-8226 > 100 µM | SK-MEL-28 > 100 µM | SN12C > 100 µM | SW-620 > 100 µM | UACC-62 > 100 µM

Nc1ccc(S(=O)(=O)NCCS(=O)(=O)O)cc1
inactive: 786-0 > 100 µM | A549 > 100 µM | ACHN > 100 µM | CCRF-CEM > 100 µM | HOP-62 > 100 µM | M14 > 100 µM | NCI-H23 > 100 µM | NCI-H460 > 100 µM | NCI-H522 > 100 µM | NCI/ADR-RES > 100 µM | OVCAR-3 > 100 µM | OVCAR-4 > 100 µM | SK-MEL-28 > 100 µM | SN12C > 100 µM | SW-620 > 100 µM | UACC-62 > 100 µM

C=C1CC[C@@H](C)[C@](C)(CCc2ccoc2)C/C=C\C=C/1C(=O)O
inactive: 786-0 46.6 µM | A549 36.2 µM | ACHN 53.2 µM | CCRF-CEM 28.4 µM | HOP-62 44.8 µM | M14 32.4 µM | NCI-H23 50.4 µM | NCI-H460 30.2 µM | NCI/ADR-RES 25.7 µM | OVCAR-3 19.3 µM | OVCAR-4 39.5 µM | SK-MEL-28 21.9 µM | SN12C 50.5 µM | SW-620 32.8 µM | UACC-62 31.2 µM
